From patent US11472843B2, “Malacidins and methods of use” (The Rockefeller University, priority 2017, dated 2022)

Assays:
[1] = Complex formation with cell wall precursors (TLC mobility shift), lipid II; assay type: binding
Protocol: (§1) Binding of malacidin to C55-P and lipid II was evaluated by incubating 1 nmol of each purified precursor with 0.5 nmol of malacidin or daptomycin in 100 mM Tris-HCl, pH 7.5, 0.1% Triton X-100, 13 mM MgCl2, and with or without 25 mM CaCl2, for 60 min at 37° C. Subsequently, the mixture was extracted twice with n-BuOH/6 M pyridinium acetate buffer, pH 4.2 (3:1, v/v). The butanol fraction was evaporated and the residue was dissolved in CHCl3/methanol (1:1, v/v). The resuspension was analysed for the loss of unbound malacidin or daptomycin to a complex by TLC analysis using chloroform/methanol/water/ammonia (88:48:10:1, v/v/v/v) as the solvent and detection by 254/366 nm visualization. Experiments were performed with biological replicates.

[2] = tested on: Cryptococcus neoformans ATCC 32045; assay: MIC assay, C. neoformans; assay type: cell-based
Protocol: (§2) MIC assays were performed in duplicate in 96-well microtiter plates on the basis of the protocol recommended by the Clinical and Laboratory Standards Institute (Cockerill, 2012, Clinical and Laboratory Standards Institute). All presented data are the average of at least three independent assays. Stock solutions of malacidin or daptomycin (2 mg ml^−1 in H2O) were added to the first well in a row and serially diluted (twofold per transfer) across the microtiter plate. CaCl2 was supplemented to media at a final concentration of 15 mM and fetal bovine serum (ATCC) was added to media (1:10) to test the effect of serum. Overnight cultures of bacteria were diluted 5,000-fold, and 50 μl was used as an inoculum in each well. MIC values were determined by visual inspection after 18 h incubation (30° C., static growth). For the enhanced calcium titration experiments, standard MIC assays were performed with methicillin-resistant Staphylococcus aureus (MRSA) PFGE strain type USA300 in media supplemented with CaCl2 at: 25.0, 18.8, 14.1, 7.03, 3.52, 2.50, 1.76, 0.880, 0.440, 0.250 and 0 mM. To assess the effects of monovalent and divalent cations on malacidin activity, standard MIC assays were performed with MRSA USA300 in media supplemented with 15 mM CaCl2, MgCl2, MnCl2, ZnCl2, SrCl2, NaCl and KCl. To evaluate the effects of pulmonary surfactants on activity against a community-acquired pneumonia-causing pathogen, standard MIC assays were performed with Streptococcus pneumoniae TCH8431 in media supplemented with both 15 mM […] and Survanta (beractant) at a final concentration of 5, 1, 0.5, 0.25 or 0% (volume/volume (v/v) percent).

S. aureus NRS108 = assay: MIC assay, S. aureus NRS108; assay type: cell-based, Staphylococcus aureus; conditions: β-lactams
Protocol: as §2

Escherichia coli DH5α = assay: MIC assay, E. coli DH5α; assay type: cell-based
Protocol: as §2

[3] = tested on: Streptococcus pneumoniae TCH8431; assay: MIC assay, S. pneumoniae; assay type: cell-based
Protocol: as §2

[4] = tested on: UDP-MurNAc-pentapeptide in MRSA USA300; assay: UDP-MurNAc-pentapeptide accumulation assay; assay type: cell-based, Staphylococcus aureus; conditions: 10 μg ml^−1, 60 min, UPLC-MS
Protocol: The intracellular accumulation of the cell wall precursor UDP-MurNAc-pentapeptide after treatment of MRSA USA300 with malacidin was assessed as previously described (Schneider et al., […], Antimicrob Agents Ch 53:1610-18). In brief, single colonies of MRSA USA300 were grown in LB media with and without 15 mM CaCl2 to an OD600 nm of 0.6. […] of cells and medium were incubated with a final concentration of 130 μg ml^−1 chloramphenicol for 15 min at 37° C. Antibiotics to be assayed were added at 10 μg ml^−1 and incubated for 60 min at 37° C. Vancomycin, known to form a complex with lipid II, was used as a positive control. Cells were collected by centrifugation, and resuspended in 30 μl dH2O and incubated in boiling water for 15 min. The cell extract was then centrifuged at 14,000 g. Supernatant was analysed for UDP-linked cell wall precursors by a UPLC-MS system. Experiments were performed with biological replicates.

S. aureus BAA-42 = assay: MIC assay, S. aureus BAA-42; assay type: cell-based, Staphylococcus aureus; conditions: β-lactams
Protocol: as §2

[5] = tested on: Bacillus subtilis 168 IAI; assay: MIC assay, B. subtilis; assay type: cell-based
Protocol: as §2

MRSA USA300 = assay: Selection for malacidin-resistant mutants; assay type: cell-based, Staphylococcus aureus; conditions: 20 days of exposure to 0.5×MIC, 15 mM calcium
Protocol: To select for resistant mutants, a single MRSA USA300 colony from a freshly struck plate was inoculated into LB media and grown overnight at 37° C. The saturated overnight culture was diluted 100-fold, supplemented with a sub-lethal dose (0.5×MIC) of malacidin A, vancomycin, daptomycin or rifamycin and 15 mM calcium. Two-hundred-microlitre aliquots were then distributed into microtiter plate wells. The next day, 3 μl of culture from each well was used to inoculate 200 μl of calcium-supplemented media (15 mM calcium) with fresh antibiotic at 0.5× and 4×MIC. This process was repeated for 20 days. […] This was repeated over the course of the experiment to assess fold change in MIC at day 0 to day 20.

[6] = Complex formation with cell wall precursors (TLC mobility shift), C55-P; assay type: binding; conditions: 1 nmol precursor, 0.5 nmol antibiotic
Protocol: as §1

S. aureus NRS140 = assay: MIC assay, S. aureus NRS140; assay type: cell-based, Staphylococcus aureus; conditions: β-lactams
Protocol: as §2

E. faecium VRE = assay: MIC assay, E. faecium VRE; assay type: cell-based, Enterococcus faecium; conditions: Vancomycin (VRE)
Protocol: as §2

Substance: malacidin A
- Lipid-II-binding activity (TLC mobility shift) ([1]; 1 nmol precursor, 0.5 nmol antibiotic): lipid-II-dependent disappearance of the malacidin band
- Calcium dependence of the interaction with lipid II ([1]; with or without 25 mM CaCl2): calcium-dependent
- MIC ([2]; C. neoformans, 15 mM CaCl2): >100 μg m1^−1
- MIC ([2]; Cryptococcus neoformans ATCC 32045): >100 µg/mL
- MIC (S. aureus NRS108; S. aureus NRS 108, gentamicin, kanamycin, 15 mM CaCl2): 0.2-0.8 μg m1^−1
- MIC (S. aureus NRS108; Staphylococcus aureus NRS108, Gentamicin, Kanamycin): 0.2 to 0.8 µg/mL
- MIC (Escherichia coli DH5α): >100 µg/mL
- Activity against S. pneumoniae in the presence of pulmonary surfactants ([3]; 15 mM CaCl2 and Survanta (beractant) 0-5% v/v): largely unaffected
- MIC ([3]; S. pneumoniae, 15 mM CaCl2): 0.8-2.0 μg m1^−1
- MIC ([3]; Streptococcus pneumoniae TCH8431): 0.1 to 0.2 µg/mL
- Accumulation of cell wall intermediate UDP-MurNAc-pentapeptide [4]: accumulation of the cell wall intermediate UDP-MurNAc-pentapeptide
- MIC (S. aureus BAA-42; S. aureus BAA-42, 15 mM CaCl2): 0.2-0.8 μg m1^−1
- MIC (S. aureus BAA-42; Staphylococcus aureus BAA-42): 0.2 to 0.8 µg/mL
- MIC ([5]; B. subtilis, 15 mM CaCl2): 0.2-0.4 μg m1^−1
- MIC ([5]; Bacillus subtilis 168 IAI): 0.2 to 0.4 µg/mL
- Detection of resistant S. aureus after repeated exposure (MRSA USA300): not detected
- Sequestration of C55-P (TLC mobility shift) [6]: did not sequester C55-P
- MIC (S. aureus NRS140; S. aureus NRS140, erythromycin, spectinomycin, 15 mM CaCl2): 0.4-0.8 μg m1^−1
- MIC (S. aureus NRS140; Staphylococcus aureus NRS140, Erythromycin, Spectinomycin): 0.4 to 2.0 µg/mL
- MIC (E. faecium VRE; E. faecium VRE, 15 mM CaCl2): 0.4-0.8 μg m1^−1
- MIC (E. faecium VRE; Enterococcus faecium VRE): 0.8 to 2.0 µg/mL
